Experimental data reported in patent publication US20140221286A1, “SODIUM CHANNEL BLOCKERS REDUCE GLUCAGON SECRETION” (Gilead Sciences, Inc., priority 2011, published 2014).

Key:
rat pancreatic islets = assay: Epinephrine-induced glucagon secretion in rat pancreatic islets; type: cell-based; conditions: epinephrine 5 μM; at 30 μM
[1] = tested on: STZ-induced diabetic mice; assay: STZ-induced diabetic mouse, animal model of type 1 diabetes; type: in vivo
Description: Streptozotocin (STZ) induces diabetes by selectively destroying the pancreatic β-cells. Five-week old male C57BL/6J mice were injected with STZ (40 mg/kg, i.p., dissolved in cold 0.025 mol/L sodium citrate-buffered solution at pH 4.5, freshly made right before injection) for 5 consecutive days to induce diabetes. Fasting plasma glucose (FPG) levels were determined 2 days after STZ treatment. Diabetic mice were then divided into STZ+vehicle and STZ+ranolazine group (10 mice/group) based on body weight (BW) and blood glucose levels. Age and gender matched non-diabetic mice were used as “normal” controls (n=3). For the following 8 weeks, mice were given either vehicle or ranolazine (20 mg/kg in water, p.o., twice daily). BW and FPG levels were monitored once a week. HbA1c levels were measured using a DCA 2000+ clinical analyzer (Siemens) at 0, 4 and 8 weeks of treatment. At the end of the treatment, pancreases from all groups were collected, fixed in 10% formalin overnight and then embedded in paraffin. HE staining and fluorescent staining were performed to review the islet morphology in all groups.

[2] = after 8 weeks treatment, fluorescence staining

COc1ccccc1OCC(O)CN1CCN(CC(=O)Nc2c(C)cccc2C)CC1 (racemic) [Ranolazine, ±-N-(2,6-dimethylphenyl)-4-[2-hydroxy-3-(2-methoxyphenoxy)-propyl]-1-piperazineacetamide]
reduction of epinephrine-induced increase of glucagon secretion (rat pancreatic islets): 44±8%
fasting plasma glucose (FPG) ([1]; 20 mg/kg p.o. twice daily, week 4): 264 ± 30 mg/dL
fasting plasma glucose (FPG) ([1]; 20 mg/kg p.o. twice daily, week 6 to week 8): 188 ± 20 mg/dL
HbA1c ([1]; 20 mg/kg p.o. twice daily, week 8): 4.6±0.2%
insulin-positive area per islet [1, 2]: 69±2.4%
percentage of total islet (insulin and glucagon) area [1, 2]: 0.30±0.03%
